Source: patent US20170080128A1, “NOVEL ENDOTRACHEAL TUBE FOR THE REDUCTION OF INTUBATION-RELATED COMPLICATION IN NEONATES AND BABIES” (Brigham Young University, priority 2015, published 2017)

System: tracheal mucosal integrity
Assay: Tracheal mucosal integrity of intubated pre-term lambs (histology)
Assay type: in vivo
Source text: FIG. 2 compares histological images of tracheal tissue of a pre-term lamb intubated with an ETT not coated with a CSA-containing coating to tracheal tissue of a pre-term lamb intubated with an ETT coated with a CSA-containing coating.
Pre-term lambs were intubated using ETTs including a coating having CSA-131 and tracheal mucosal integrity of the lambs was compared to the tracheal mucosal integrity of a control group (intubated with uncoated ETTs). […] FIG. 2 illustrates the histological appearance of tracheas of the premature lambs that were intubated for three days. […] An area of denuded epithelium (arrowhead), and accumulation of white blood cells (arrow) are highlighted.

## CCCCCCCCCCCCNCCC[C@@H](C)[C@H]1CC[C@H]2[C@@H]3[C@H](OCCCN)C[C@@H]4C[C@H](OCCCN)CC[C@]4(C)[C@H]3C[C@H](OCCCN)[C@]12C.Cl.Cl.Cl.Cl [CSA-131]
ETT coated with a CSA-131 containing coating, intubated for three days
  Histological appearance of trachea (FIG. 2, image (b)): the epithelium is intact and the subjacent connective tissue region is not inflamed
ETTs including a coating having CSA-131
  Tracheal mucosal integrity compared to control group (uncoated ETTs): markedly improved mucosal integrity
